From patent publication US9051612B2, “Compositions and methods for nucleotide sequencing” (Illumina, Inc., priority 2006, dated 2015)

Target: T1, calf intestinal alkaline phosphatase (Bos taurus, UniProt P19111)
T1 construct: purchased USB
Test: Enzymatic removal of 2′ phosphate blocking group with alkaline phosphatase
Format: biochemical
Settings: aqueous buffer, room temperature

T1 sequence (P19111 20-506): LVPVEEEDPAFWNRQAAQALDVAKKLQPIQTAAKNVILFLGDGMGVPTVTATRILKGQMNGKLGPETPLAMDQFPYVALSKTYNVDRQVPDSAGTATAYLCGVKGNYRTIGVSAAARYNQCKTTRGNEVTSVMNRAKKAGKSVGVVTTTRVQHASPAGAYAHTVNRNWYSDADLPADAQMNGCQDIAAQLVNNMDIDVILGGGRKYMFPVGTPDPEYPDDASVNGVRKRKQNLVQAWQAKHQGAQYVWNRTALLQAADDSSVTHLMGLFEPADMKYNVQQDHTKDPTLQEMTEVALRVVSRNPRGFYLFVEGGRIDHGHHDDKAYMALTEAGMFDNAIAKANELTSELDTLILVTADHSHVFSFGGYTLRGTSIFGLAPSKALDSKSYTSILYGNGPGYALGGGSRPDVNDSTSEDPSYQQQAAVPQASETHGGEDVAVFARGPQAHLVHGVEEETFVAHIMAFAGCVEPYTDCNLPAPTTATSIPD

O=c1ccn(C2OC(COP(=O)(O)OP(=O)(O)OP(=O)(O)O)C(O)C2OP(=O)(O)O)c(=O)[nH]1 (stereo not shown) [2′ reversible terminator, 2′-phosphate UTP]
removal of the phosphate blocking group: can be quantitatively removed using alkaline phosphatase in less than one minute
